According to patent US20240082252A1, “COMPOSITIONS AND METHODS RELATING TO CANCER” (The Penn State Research Foundation, priority 2015, published 2024):

What was measured:
[1] = serum analysis of toxicity markers at end of study; assay type: in vivo, mice; settings: for CREA / BUN: kidney; for CREA: reference levels 0.1-0.3; for BUN: reference levels 18-33.7; for TBIL / ALB / SGPT (ALT) / ALKP: liver function; for TBIL: reference levels 0.1-0.9; for ALB: reference levels 2.5-4.8; for SGPT (ALT): reference levels 33-132, UACC 903 xenograft mice, oral daily; for ALKP: reference levels 62-209; for GLOB: no reference levels printed; for TP / CHOL / GLU: others; for TP: reference levels 3.6-6.6; for CHOL: reference levels 92-157; for GLU: reference levels 198-247; for AMYL: pancreas, reference levels 1691-3615
Method: At the end of the study, blood samples were collected from each mouse, serum was separated and levels of various toxicity markers were analyzed. All of the measured biomarkers in samples collected from mice were within the normal range which excludes any toxicity caused by these drugs. Furthermore, visceral organs such as, heart, lungs, liver, intestine, spleen and kidney from each mouse were also collected, fixed in formalin and embedded in paraffin to assess any toxicity associated abnormality in cell morphology and tissue structure following hematoxylin and eosin staining.

[2] = system: UACC 903 human melanoma tumors; assay: UACC 903 melanoma xenograft, oral drug treatment; assay type: in vivo, athymic-Foxn1^nu nude mice; settings: MK1775 50 mg/kg, AZD5363 150 mg/kg, oral daily for 18 days; vs vehicle
Method: Tumor kinetics studies were undertaken in athymic-Foxn1^nu nude mice (Harlan Laboratories, Indianapolis, IN, USA). In genetic knockdown models, siRNA targeting AKT3 and WEE1 alone or in combination was nucleofected into 1×10^6 UACC 903 or 1205 Lu cells as described above. Cells transfected with scrambled siRNA were used as a control. After plating and allowing the cells to recover for 48 hours, 1×10^6 cells were aliquoted in 0.2 ml of 10% FBS-DMEM and then injected subcutaneously above both the left and right rib cages of 4-6 week old female mice (3-4 mice/group). Dimensions of developing tumors were measured on alternate days, using calipers to estimate size by multiplying length, width and depth in mm^3. For pharmacological synergy studies, 1×10^6 UACC 903 cells were injected subcutaneously above both the left and right rib cages of 4-6 week old female mice. […] Drugs were prepared in 0.5% methylcellulose, 0.5% Tween 80, 5% DMSO and 200 uL administered per oral treatment.
At the end of the study, blood samples were collected from each mouse, serum was separated and levels of various toxicity markers were analyzed. All of the measured biomarkers in samples collected from mice were within the normal range which excludes any toxicity caused by these drugs. […]

C8161.C19 cells = assay: cytotoxicity of pharmacological agents alone or combined (CellTiter 96), 48 hours; assay type: cell-based; settings: for cell viability, single agents: 0.15 μM MK1775, 0.31 to 2.5 μM GDC0068, 1.25 to 10 μM AZD5363, FIG. 3E, 3G
Method: (§1) Cytotoxicity of these agents alone or in combination in melanoma cells was measured by plating 2.5 to 5×10^3 cells into 96-well plates followed by growth for 24 to 48 hours in a humidified 37° C. cell culture incubator. […] Control cells were treated with vehicle (DMSO) alone. Cytotoxicity was measured using the CellTiter 96 Aqueous Non-Radioactive Cell Proliferation Assay (Promega). The combined effects of MK1775 and GDC0068 were quantified using CalcuSyn software.

UACC 903 cells [3] = assay: RNA sequencing, differentially expressed genes; assay type: cell-based, human; settings: 24 hours after treatment; intensity difference test p<0.05
Excerpt: Twenty-four hours following treatment with tested agents, total RNA was extracted from UACC 903 cells using mirVana RNA isolation kit (Life Technologies, Grand Island, NY). Next, using SureSelect Strand Specific RNA Library Preparation kit (Agilent) cDNA libraries were constructed, polyA RNA was purified with oligo (dT) beads and then extracted RNA was processed through fragmentation, reverse transcription, end repair, 3′-end adenylation, adaptor ligation, PCR amplification and SPRI bead purification (Beckman Coulter). For multiplexed high-throughput sequencing, the unique barcode sequences were incorporated. Libraries were then denatured using the Illumina protocol, diluted with pre-chilled hybridization buffer and loaded onto TruSeq SR v3 flow cells on an Illumina HiSeq 2500 (50 cycles, single-read). Sequencing reads were extracted by using Illumina CASAVA pipeline Version 1.8 and aligned to the human reference genome (hg38) using Tophat (version 2.0.9) as described in detail in Trapnell et al, Bioinformatics 2009; 25(9): 1105-11. SeqMonk (version 0.32.0) was used for the identification of differentially expressed genes. Following RNA-Seq quantitation, 75% percentile normalization was performed and significant alterations were determined via intensity difference test with Benjamini and Hochberg multiple testing correction (p-value <0.05). […]

[4] = system: 1205 Lu melanoma xenografts; assay: 1205 Lu melanoma xenograft, oral drug treatment; assay type: in vivo, Athymic-Foxnlnu nude mice; settings: for reduced growth of 1205 Lu xenograft / tumor development: AZD5363 150 mg/kg, MK1775 50 mg/kg, oral daily for 18 days, vs control, FIG. 4C; for reduced growth of 1205 Lu xenograft tumors: b.i.d.: AZD5363 130 mg/kg 4 days on/3 off, MK1775 30 mg/kg 3 days on/4 off, consecutive dosing in combination, 18 days, FIG. 4E
Method: 1205 Lu melanoma xenograft tumors were established by subcutaneous injection of 1×10^6 1205 Lu cells injected above both left and right rib cages of 4-6 week-old female Athymic-Foxnlnu nude mice (Harlan Sprague Dawley). Six days later, when a fully vascularized tumor had formed, mice were randomly divided into treatment groups described below. Body weight in grams and dimensions of developing tumors in mm^3 were measured on alternate days (1-6). Drugs were prepared in 0.5% methylcellulose, 0.5% Tween 80, 5% DMSO and […] administered per oral treatment.
Group 1 (vehicle control, 0.5% methylcellulose, 0.5% Tween 80, 5% DMSO) daily for 18 days;
Group 3 (MK1775, 50 mg/kg) daily for 18 days; and
Group 5 (vehicle control, 0.5% methylcellulose, 0.5% Tween 80, 5% DMSO) b.i.d. (twice a day) for 18 days;
Group 7, (MK1775, 30 mg/kg b.i.d. for 3 days on, 4 days off) for 18 days; and […]

UACC 903 melanoma cells = assay: Western blotting of treated cells; assay type: cell-based, human; settings: 1, 3 or 10 μM AZD5363, FIG. 5C; for phosphorylated CDK1 levels: 1 μM MK1775
Method: Cell lysates were collected 48-96 hours after siRNA transfection or drug treatment by washing plates with PBS followed by addition of RIPA lysis buffer containing Halt Protease & Phosphatase Inhibitor Cocktail (Thermo Scientific, Rockford, IL, USA). Lysates were centrifuged (10,000×g) for 10 minutes at 4° C. to remove cell debris. Protein concentration was measured using the bicinchoninic acid assay kit (Thermo Scientific, Rockford, IL, USA). 25 μg of respective lysates were loaded onto 4-12% Bis-Tris NuPAGE gels (Life Technologies, Grand Island, NY) and run in an XCell SureLock Mini-Cell gel apparatus (Life Technologies, Grand Island, NY), transferred to polyvinylidene difluoride membranes (PVDF) (Pall Corporation, Port Washington, NY), probed with respective primary antibody followed by horseradish peroxidase-conjugated secondary antibody, and exposed using ECL Western Blotting Substrate (Thermo Scientific, Rockford, IL, USA) or Supersignal West Femto Chemiluminescent Substrate (Thermo Scientific, Rockford, IL, USA). Primary antibodies used: p21 (sc-756), p27 (sc-528), PLK1 (sc-17783), p53 (sc-6243) and ERK2 (sc-1647) from Santa Cruz Biotechnology (Dallas, TX), pAKT (S473 in AKT1, 5474 in AKT2 and 5472 in AKT3, #9271), AKT3 (#3788), Total AKT (#4685), pWEE1 (#4910), WEE1 (#4936), p-CDC2 (Y15) (#9111), p-CDC2 ([…]) (#9114), CDC2 (#9112) CHK1 (#2345), pCHK1 (#2344), pRB ([…]/811) (#9308), pRB ([…]) (#9301), pRB ([…]) (#9307), RB (#9309), FOXM1 (#5436), p-Histone H2AX (S139) (#2577) and Cleaved PARP (#9541) from Cell Signaling (Danvers, MA). Secondary antibodies goat anti-rabbit IgG-HRP (sc-2004) and goat anti-mouse IgG-HRP (sc-2005) were purchased from Santa Cruz Biotechnology, Dallas, TX.

UACC 903 cells [5] = assay: cytotoxicity of pharmacological agents alone or combined (CellTiter 96), 48 hours; assay type: cell-based; settings: Homo sapiens, UACC-903, read-out: reduced cell viability
Method: as §1

Row | Structure (SMILES) | CREA [1] | BUN [1] [mg/dL] | TBIL [1] [mg/dL] | ALB [1] [g/dL] | SGPT (ALT) [1] [u/L] | ALKP [1] [u/L] | GLOB [1] [g/dL] | TP [1] [g/dL] | CHOL [1] [mg/dL] | GLU [1] [mg/dL] | AMYL [1] [U/L] | decrease in tumor size / tumor development [2] | cell viability, single agents (C8161.C19 cells) | number of significantly deregulated genes (UACC 903 cells [3]) [genes] | reduced growth of 1205 Lu xenograft / tumor development [4] [%] | reduced growth of 1205 Lu xenograft tumors [4] [%] | phosphorylated CDK1 levels (UACC 903 melanoma cells) | phosphorylated PRAS40 levels (UACC 903 melanoma cells) | cytotoxicity at 0.63 µM (UACC 903 cells [5]) [%] | relative single-agent activity (C8161.C19 cells; C8161.C19 cell line)
1 | NC1(C(=O)N[C@@H](CCO)c2ccc(Cl)cc2)CCN(c2ncnc3[nH]ccc23)CC1 [AZD5363] | 0.1 ± 0^ mg/dL | 25.8 ± 2.2 | 0.5 ± 0.1 | 2.5 | 41.3 ± 7.4 | 86.3 ± 7.5 | 2.6 ± 0.1 | 5.1 ± 0.1 | 113.5 ± 7.6 | 214 ± 30.6 | 1891 ± 129.7 | 36% | reduced cell viability | 64 | ~50 | ~30 | reduced the phosphorylation of CDK1 in a dose-dependent manner | dose-dependently decreased phosphorylated PRAS40 levels | – | –
2 | CC(C)NC[C@@H](C(=O)N1CCN(c2ncnc3c2[C@H](C)C[C@H]3O)CC1)c1ccc(Cl)cc1 [GDC0068, ipatasertib] | – | – | – | – | – | – | – | – | – | – | – | – | reduced cell viability | – | – | – | – | – | – | –
3 | C=CCn1c(=O)c2cnc(Nc3ccc(N4CCN(C)CC4)cc3)nc2n1-c1cccc(C(C)(C)O)n1 [MK1775, 2-allyl-1-(6-(2-hydroxypropan-2-yl)pyridin-2-yl)-6-((4-(4-methylpiperazin-1-yl)phenyl)amino)-1H-pyrazolo[3,4-d]pyrimidin-3(2H)-one] | 0.1 ± 0 mg/dL | 25.3 ± 1.9 | 0.6 ± 0 | 0.0026 ± 0.0001 | 55 ± 10.1 | 75 ± 5.6 | 2.6 ± 0 | 5.2 ± 0.1 | 142.5 ± 4.6 | 237.5 ± 31.4 | 2251.8 ± 50.2 | ineffective | reduced cell viability | 94 | ~50 | ~30 | decreased phosphorylated CDK1 levels | – | 35 to 40 | significantly more effective
